Measured values reported in US20090253669A1, “Substituted Sulfonamide Compounds” (GRUENENTHAL GmbH, priority 2008, published 2009).

Experiments:
[1] = biological target: T1, human B1R receptor (hB1R) (Homo sapiens, UniProt P46663); test: FLIPR Ca2+ assay on hB1R-transfected CHO K1 cells, antagonistic action; format: cell-based; conditions: CHO-K1, 10 μM test substance; agonist Lys-Des-Arg9-bradykinin 0.5 nM; % of maximum achievable inhibition; read-out: hB1R [10 μM] % inhibition
T1 construct: host or cells: CHO K1 cells
T1 sequence (P46663 1-353): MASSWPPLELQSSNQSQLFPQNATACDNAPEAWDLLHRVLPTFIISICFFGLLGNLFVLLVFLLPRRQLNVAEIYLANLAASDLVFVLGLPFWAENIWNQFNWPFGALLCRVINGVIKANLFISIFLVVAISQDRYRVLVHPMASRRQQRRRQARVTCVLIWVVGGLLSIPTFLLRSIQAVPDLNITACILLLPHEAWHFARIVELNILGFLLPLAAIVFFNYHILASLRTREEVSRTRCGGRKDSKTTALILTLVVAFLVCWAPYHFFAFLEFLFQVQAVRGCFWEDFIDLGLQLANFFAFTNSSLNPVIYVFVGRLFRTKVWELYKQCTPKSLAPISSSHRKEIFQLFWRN

[2] = biological target: T2, B1R receptor of the rat (rB1R) (Rattus norvegicus, UniProt P97583); test: FLIPR Ca2+ assay on rB1R-transfected CHO K1 cells, antagonistic action; format: cell-based; conditions: CHO-K1, 10 μM test substance; agonist Des-Arg9-bradykinin 100 nM; % of maximum achievable inhibition; read-out: rB1R [10 μM] % inhibition
T2 construct: host or cells: CHO K1 cells
T2 sequence (P97583 1-337): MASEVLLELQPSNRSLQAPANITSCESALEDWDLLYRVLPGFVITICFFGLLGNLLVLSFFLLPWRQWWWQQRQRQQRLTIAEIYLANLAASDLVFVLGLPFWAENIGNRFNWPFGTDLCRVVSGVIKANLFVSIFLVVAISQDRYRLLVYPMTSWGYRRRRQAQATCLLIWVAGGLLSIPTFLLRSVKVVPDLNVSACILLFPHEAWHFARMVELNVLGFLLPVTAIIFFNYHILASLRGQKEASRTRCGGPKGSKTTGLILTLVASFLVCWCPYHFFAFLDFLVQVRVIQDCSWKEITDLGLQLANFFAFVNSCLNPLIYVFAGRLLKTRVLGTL

SMILES | inhibition at 10 µM [1] | inhibition at 10 µM [2]
COc1cc(C)c(S(=O)(=O)N2CCCCC2COCC(=O)NC2CCC(Cc3ccccc3)(N3CCOCC3)CC2)c(C)c1 (stereo not shown) [Compound 155, N-(4-benzyl-4-morpholinocyclohexyl)-2-((1-(4-methoxy-2,6-dimethylphenylsulfonyl)piperidin-2-yl)methoxy)acetamide] | 97% | 100%
O=C(COCC1CCCN1S(=O)(=O)c1c(Cl)cc(Cl)cc1Cl)NC1CCC(Cc2ccccc2)(N2CCCC2)CC1 (stereo not shown) [Compound 156, N-(4-benzyl-4-(pyrrolidin-1-yl)cyclohexyl)-2-((1-(2,4,6-trichlorophenylsulfonyl)pyrrolidin-2-yl)methoxy)acetamide] | 76% | 100%
COc1cc(C)c(S(=O)(=O)N2CCCCC2COCC(=O)NCC2CCC(c3ccccc3)(N3CCOCC3)CC2)c(C)c1 (stereo not shown) [Compound 157, 2-((1-(4-methoxy-2,6-dimethylphenylsulfonyl)piperidin-2-yl)methoxy)-N-((4-morpholino-4-phenylcyclohexyl)methyl)acetamide] | 76% | 99%
COc1cc(C)c(S(=O)(=O)N2CCCCC2COCC(=O)NC2CCC(c3ccccc3)(N3CCOCC3)CC2)c(C)c1 (stereo not shown) [Compound 158, 2-((1-(4-methoxy-2,6-dimethylphenylsulfonyl)piperidin-2-yl)methoxy)-N-(4-morpholino-4-phenylcyclohexyl)acetamide] | 87% | 99%
COc1cc(C)c(S(=O)(=O)N2CCCC2COCC(=O)NC2CCC(Cc3ccccc3)(N3CCOCC3)CC2)c(C)c1 (stereo not shown) [Compound 159, N-(4-benzyl-4-morpholinocyclohexyl)-2-((1-(4-methoxy-2,6-dimethylphenylsulfonyl)pyrrolidin-2-yl)methoxy)acetamide] | 45% | 98%
COc1cc(C)c(S(=O)(=O)N2CCCC2COCC(=O)NC2CCC(c3ccccc3)(N3CCOCC3)CC2)c(C)c1 (stereo not shown) [Compound 160, 2-((1-(4-methoxy-2,6-dimethylphenylsulfonyl)pyrrolidin-2-yl)methoxy)-N-(4-morpholino-4-phenylcyclohexyl)acetamide] | 93% | 98%
CN1CCN(C2(CCc3ccccc3)CCC(CN(C)C(=O)COCC3CCCCN3S(=O)(=O)c3c(Cl)cc(Cl)cc3Cl)CC2)CC1 (stereo not shown) [Compound 161, N-methyl-N-((4-(4-methylpiperazin-1-yl)-4-phenethylcyclohexyl)methyl)-2-((1-(2,4,6-trichlorophenylsulfonyl)piperidin-2-yl)methoxy)acetamide] | 101% | 98%
CN1CCN(C2(Cc3ccccc3)CCC(CN(C)C(=O)COCC3CCCCN3S(=O)(=O)c3c(Cl)cc(Cl)cc3Cl)CC2)CC1 (stereo not shown) [Compound 162, N-((4-benzyl-4-(4-methylpiperazin-1-yl)cyclohexyl)methyl)-N-methyl-2-((1-(2,4,6-trichlorophenylsulfonyl)piperidin-2-yl)methoxy)acetamide] | 102% | 94%
O=C(COCC1CCCCN1S(=O)(=O)c1c(Cl)cc(Cl)cc1Cl)NC1CCC(Cc2ccccc2)(N2CCCC2)CC1 (stereo not shown) [Compound 163, N-(4-benzyl-4-(pyrrolidin-1-yl)cyclohexyl)-2-((1-(2,4,6-trichlorophenylsulfonyl)piperidin-2-yl)methoxy)acetamide] | 84% | 93%
O=C(COCC1CCCN1S(=O)(=O)c1c(Cl)cc(Cl)cc1Cl)NC1CCC(c2ccccc2)(N2CCOCC2)CC1 (stereo not shown) [Compound 164, N-(4-morpholino-4-phenylcyclohexyl)-2-((1-(2,4,6-trichlorophenylsulfonyl)pyrrolidin-2-yl)methoxy)acetamide] | 74% | 90%
COc1cc(C)c(S(=O)(=O)N(C)CCOCC(=O)N(C)CC2CCC(CCc3ccccc3)(N3CCN(C)CC3)CC2)c(C)c1 (stereo not shown) [Compound 165, 2-(2-(4-methoxy-N,2,6-trimethylphenylsulfonamido)ethoxy)-N-methyl-N-((4-(4-methylpiperazin-1-yl)-4-phenethylcyclohexyl)methyl)acetamide] | 103% | 90%
COc1cc(C)c(S(=O)(=O)N2CCC(OCC(=O)NC3CCC(Cc4ccccc4)(N4CCCC4)CC3)C2)c(C)c1 (stereo not shown) [Compound 166, N-(4-benzyl-4-(pyrrolidin-1-yl)cyclohexyl)-2-(1-(4-methoxy-2,6-dimethylphenylsulfonyl)pyrrolidin-3-yloxy)acetamide] | 92% | 90%
COc1cc(C)c(S(=O)(=O)N(C)CCOCC(=O)NC2CCC(c3ccccc3)(N3CCOCC3)CC2)c(C)c1 (stereo not shown) [Compound 167, 2-(2-(4-methoxy-N,2,6-trimethylphenylsulfonamido)ethoxy)-N-(4-morpholino-4-phenylcyclohexyl)acetamide] | 100% | 88%
CN1CCN(C2(Cc3ccccc3)CCC(CN(C)C(=O)COCC3CCCN3S(=O)(=O)c3c(Cl)cc(Cl)cc3Cl)CC2)CC1 (stereo not shown) [Compound 168, N-((4-benzyl-4-(4-methylpiperazin-1-yl)cyclohexyl)methyl)-N-methyl-2-((1-(2,4,6-trichlorophenylsulfonyl)pyrrolidin-2-yl)methoxy)acetamide] | 88% | 88%
COc1cc(C)c(S(=O)(=O)N2CCCC2COCC(=O)NCC2CCC(Cc3ccccc3)(N3CCOCC3)CC2)c(C)c1 (stereo not shown) [Compound 169, N-((4-benzyl-4-morpholinocyclohexyl)methyl)-2-((1-(4-methoxy-2,6-dimethylphenylsulfonyl)pyrrolidin-2-yl)methoxy)acetamide] | 41% | 86%
COc1cc(C)c(S(=O)(=O)N(C)CCOCC(=O)NC2CCC(Cc3ccccc3)(N3CCCC3)CC2)c(C)c1 (stereo not shown) [Compound 170, N-(4-benzyl-4-(pyrrolidin-1-yl)cyclohexyl)-2-(2-(4-methoxy-N,2,6-trimethylphenylsulfonamido)ethoxy)acetamide] | 104% | 84%
COc1cc(C)c(S(=O)(=O)N(C)CCOCC(=O)NC2CCC(Cc3ccccc3)(N3CCOCC3)CC2)c(C)c1 (stereo not shown) [Compound 171, N-(4-benzyl-4-morpholinocyclohexyl)-2-(2-(4-methoxy-N,2,6-trimethylphenylsulfonamido)ethoxy)acetamide] | 75% | 82%
CN1CCN(C2(CCc3ccccc3)CCC(CN(C)C(=O)COCC3CCCN3S(=O)(=O)c3c(Cl)cc(Cl)cc3Cl)CC2)CC1 (stereo not shown) [Compound 172, N-methyl-N-((4-(4-methylpiperazin-1-yl)-4-phenethylcyclohexyl)methyl)-2-((1-(2,4,6-trichlorophenylsulfonyl)pyrrolidin-2-yl)methoxy)acetamide] | 98% | 79%
COc1cc(C)c(S(=O)(=O)N2CCC(OCC(=O)NCC3CCC(c4ccccc4)(N4CCOCC4)CC3)C2)c(C)c1 (stereo not shown) [Compound 173, 2-(1-(4-methoxy-2,6-dimethylphenylsulfonyl)pyrrolidin-3-yloxy)-N-((4-morpholino-4-phenylcyclohexyl)methyl)acetamide] | 64% | 78%
COc1cc(C)c(S(=O)(=O)N2CCC(OCC(=O)N(C)CC3CCC(Cc4ccccc4)(N4CCN(C)CC4)CC3)C2)c(C)c1 (stereo not shown) [Compound 174, N-((4-benzyl-4-(4-methylpiperazin-1-yl)cyclohexyl)methyl)-2-(1-(4-methoxy-2,6-dimethylphenylsulfonyl)pyrrolidin-3-yloxy)-N-methylacetamide] | 99% | 78%
CN1CCN(C2(Cc3ccccc3)CCC(CN(C)C(=O)COC3CCCN(S(=O)(=O)c4c(Cl)cc(Cl)cc4Cl)C3)CC2)CC1 (stereo not shown) [Compound 175, N-((4-benzyl-4-(4-methylpiperazin-1-yl)cyclohexyl)methyl)-N-methyl-2-(1-(2,4,6-trichlorophenylsulfonyl)piperidin-3-yloxy)acetamide] | 97% | 77%
COc1cc(C)c(S(=O)(=O)N2CCCC(OCC(=O)NC3CCC(c4ccccc4)(N4CCCC4)CC3)C2)c(C)c1 (stereo not shown) [Compound 176, 2-(1-(4-methoxy-2,6-dimethylphenylsulfonyl)piperidin-3-yloxy)-N-(4-phenyl-4-(pyrrolidin-1-yl)cyclohexyl)acetamide] | 89% | 77%
COc1cc(C)c(S(=O)(=O)N2CCC(OCC(=O)N(C)CC3CCC(CCc4ccccc4)(N4CCN(C)CC4)CC3)C2)c(C)c1 (stereo not shown) [Compound 177, 2-(1-(4-methoxy-2,6-dimethylphenylsulfonyl)pyrrolidin-3-yloxy)-N-methyl-N-((4-(4-methylpiperazin-1-yl)-4-phenethylcyclohexyl)methyl)acetamide] | 103% | 76%
